In patent US20250360125A1, “METHODS AND COMPOSITIONS FOR TREATING HUNTINGTON'S DISEASE AND ITS SYMPTOMS” (Corcept Therapeutics Incorporated, priority 2023, published 2025):

Columns and labels:
other steroid receptors = conditions: no test described; cited from earlier work
Iba1 = Iba1 immunohistochemistry (microglia marker) in hippocampus of R6/2 mice; format: in vivo, mouse; conditions: experiment 1, male HD R6/2 mice, 30 mg/kg s.c. daily for 5 weeks
Procedure: (§1) Animal studies: experimental procedures From 6 weeks of age onwards, mice received a daily subcutaneous (s.c.) injection either with 30 mg/kg of CORT113176 or vehicle (Veh; 10% ethanol and castor oil in experiment 1 or sesame oil in experiment 2) for five consecutive weeks. In experiment 1, male and female mice were assigned into one of the following groups: 1) WT+Veh (n=5 per sex), 2) WT+CORT113176 (n=5), 3) HD+Veh (n=5) or 4) HD+CORT113176 (n=5). In the final analysis there was an unequal group distribution for the male mice due to a mislabeled genotype and a mouse reaching an earlier endpoint resulting in n=6 in the WT+Veh group and n=3 in the HD+Veh group. […] Bodyweight was measured weekly and motor tests were performed at 1 PM to monitor the disease progression (as described below). […] The slides of DARP32, GFAP and Iba1 were scanned with the Axio Slide Scanner (Zeiss, Axio Slide Scan.Z1) and the mHtt slides were analyzed using the confocal microscope (Leica, White Light Laser Confocal Microscope TCS SP8 X). All obtained images were analyzed using ImageJ (version 1.52p). DARP32, GFAP and Iba1 the mean intensity was measured in the striatum and hippocampus. The total number of aggregates in a specific region of interest (ROI), the total area in the ROI and the average size of the aggregates were measured.

GFAP = GFAP immunohistochemistry (astrocyte marker) in striatum and hippocampus of R6/2 mice; format: in vivo, mouse; conditions: experiment 1, male HD R6/2 mice, 30 mg/kg s.c. daily for 5 weeks
Procedure: as §1

R6/2 mouse model [1] = experiment: Gait abnormalities in R6/2 mice; format: in vivo; conditions: male R6/2 mice
R6/2 mouse model [2] = experiment: Hindlimb clasping test in R6/2 mice; format: in vivo; conditions: 30 mg/kg s.c. daily for 5 weeks
Procedure: (§2) HD and wild-type (WT) R6/2 mice were purchased from JAX (The Jackson Laboratory, ME, USA) and arrived in the animal facility at 4-weeks of age. The mice were housed under normal conditions (room temperature, 12 hours light/dark cycle) with food and water ab libitum. The mice were housed 3-4 per cage, separated by sex, but different genotypes were housed together to improve the survival of the HD mice^11. Genotyping on tail samples that were collected post-mortem was performed by Laragen (CA, USA) to confirm that all HD mice had between 120-130 CAG repeats.
Animal studies: experimental procedures From 6 weeks of age onwards, mice received a daily subcutaneous (s.c.) injection either with 30 mg/kg of CORT113176 or vehicle (Veh; 10% ethanol and castor oil in experiment 1 or sesame oil in experiment 2) for five consecutive weeks. In experiment 1, male and female mice were assigned into one of the following groups: 1) WT+Veh (n=5 per sex), 2) WT+CORT113176 (n=5), 3) HD+Veh (n=5) or 4) HD+CORT113176 (n=5). In the final analysis there was an unequal group distribution for the male mice due to a mislabeled genotype and a mouse reaching an earlier endpoint resulting in n=6 in the WT+Veh group and n=3 in the HD+Veh group. In experiment 2, male mice were assigned into the following groups: 1) WT+Veh (n=10), 2) HD+Veh (n=10, ultimately n=8 due to a non-responder that met outlier criteria and a mouse reaching an earlier timepoint) and 3) HD+CORT113176 (n=10). Bodyweight was measured weekly and motor tests were performed at 1 PM to monitor the disease progression (as described below). On day 19 and day 34, blood samples were taken in the morning to evaluate corticosterone levels. On day 34, the animals were sacrificed using CO2 inhalation, blood was collected via cardiac puncture and the animals were perfused with cold PBS. Afterwards, several tissues were harvested and snap-frozen for further analysis. Brains were collected and stored for 24 hours at 4% PFA for IHC (further described below). […]

R6/2 mouse model [3] = experiment: Forelimb grip strength in R6/2 mice; format: in vivo; conditions: 30 mg/kg s.c. daily for 5 weeks
Procedure: as §2
Animal studies: experimental procedures From 6 weeks of age onwards, mice received a daily subcutaneous (s.c.) injection either with 30 mg/kg of CORT113176 or vehicle (Veh; 10% ethanol and castor oil in experiment 1 or sesame oil in experiment 2) for five consecutive weeks. In experiment 1, male and female mice were assigned into one of the following groups: 1) WT+Veh (n=5 per sex), 2) WT+CORT113176 (n=5), 3) HD+Veh (n=5) or 4) HD+CORT113176 (n=5). […] Bodyweight was measured weekly and motor tests were performed at 1 PM to monitor the disease progression (as described below). […]
Grip strength: Grip strength measurements were performed weekly to quantify muscle strength. […] The mouse was then gently pulled away until grip was lost, and the force that was required to do this was monitored. […]

mHtt aggregates = experiment: mHtt aggregate immunohistochemistry in striatum and hippocampal CA1 of R6/2 mice; format: in vivo, mouse; conditions: experiment 2, male HD R6/2 mice, vs vehicle-treated HD mice
Procedure: Animal studies: experimental procedures From 6 weeks of age onwards, mice received a daily subcutaneous (s.c.) injection either with 30 mg/kg of CORT113176 or vehicle (Veh; 10% ethanol and castor oil in experiment 1 or sesame oil in experiment 2) for five consecutive weeks. In experiment 1, male and female mice were assigned into one of the following groups: 1) WT+Veh (n=5 per sex), 2) WT+CORT113176 (n=5), 3) HD+Veh (n=5) or 4) HD+CORT113176 (n=5). In the final analysis there was an unequal group distribution for the male mice due to a mislabeled genotype and a mouse reaching an earlier endpoint resulting in n=6 in the WT+Veh group and n=3 in the HD+Veh group. In experiment 2, male mice were assigned into the following groups: 1) WT+Veh (n=10), 2) HD+Veh (n=10, ultimately n=8 due to a non-responder that met outlier criteria and a mouse reaching an earlier timepoint) and 3) HD+CORT113176 (n=10). Bodyweight was measured weekly and motor tests were performed at 1 PM to monitor the disease progression (as described below). On day 19 and day 34, blood samples were taken in the morning to evaluate corticosterone levels. On day 34, the animals were sacrificed using CO2 inhalation, blood was collected via cardiac puncture and the animals were perfused with cold PBS. Afterwards, several tissues were harvested and snap-frozen for further analysis. Brains were collected and stored for 24 hours at 4% PFA for IHC (further described below). Immunohistochemistry Brains were isolated and the left hemisphere was fixated in 4% PFA (Sigma-Aldrich, 8187085000) for 24 hours. Afterwards the brains were transferred to a 30% sucrose solution for 24-48 hours and stored at −80° C. until further processing. Cryosections of 10 μM were collected (CryoStar NX70) on slides (Avantor, VWR® Microscope Slides, 631-1166) and stored at −20° C. until staining. The slides were incubated for 25 minutes with 0.1% Triton X-100 (Sigma-Aldrich), washed with 0.1% PBS/Tween (Tween®20, Sigma-Aldrich). The background signal was blocked with 5% PBSA for 30 minutes before the incubation with the primary antibody DARP32, (1:500, abcam, EP720Y, ab40801), GFAP (1:500, Agilent DAKO, Z0334), Iba1, (1:500, Fujifilm Wako, 019-19741) or mHtt, 1:500 (1:500, abcam, EPR5526, ab209668) overnight at 4° C. The following day slides were washed with 0.1% PBS/Tween before incubation with the secondary antibody goat anti-rabbit Alexa Fluor 488 (1:250, Invitrogen, A-110088) for 30 minutes. After a final wash with 0.1% PBS/Tween, ProLong gold with DAPI (Invitrogen, P36931) was added with a coverslip (Thermo-Fisher, Menzel-Glaser, 0980) and the slides were dried at room temperature. The slides of DARP32, GFAP and Iba1 were scanned with the Axio Slide Scanner (Zeiss, Axio Slide Scan.Z1) and the mHtt slides were analyzed using the confocal microscope (Leica, White Light Laser Confocal Microscope TCS SP8 X). All obtained images were analyzed using ImageJ (version 1.52p). DARP32, GFAP and Iba1 the mean intensity was measured in the striatum and hippocampus. The total number of aggregates in a specific region of interest (ROI), the total area in the ROI and the average size of the aggregates were measured.

R6/2 mouse model [4] = experiment: Observed epileptic seizures in R6/2 mice (Racine scale); format: in vivo
Procedure: as §2
Animal studies: experimental procedures From 6 weeks of age onwards, mice received a daily subcutaneous (s.c.) injection either with 30 mg/kg of CORT113176 or vehicle (Veh; 10% ethanol and castor oil in experiment 1 or sesame oil in experiment 2) for five consecutive weeks. In experiment 1, male and female mice were assigned into one of the following groups: 1) WT+Veh (n=5 per sex), 2) WT+CORT113176 (n=5), 3) HD+Veh (n=5) or 4) HD+CORT113176 (n=5). In the final analysis there was an unequal group distribution for the male mice due to a mislabeled genotype and a mouse reaching an earlier endpoint resulting in n=6 in the WT+Veh group and n=3 in the HD+Veh group. In experiment 2, male mice were assigned into the following groups: 1) WT+Veh (n=10), 2) HD+Veh (n=10, ultimately n=8 due to a non-responder that met outlier criteria and a mouse reaching an earlier timepoint) and 3) HD+CORT113176 (n=10). Bodyweight was measured weekly and motor tests were performed at 1 PM to monitor the disease progression (as described below). On day 19 and day 34, blood samples were taken in the morning to evaluate corticosterone levels. On day 34, the animals were sacrificed using CO2 inhalation, blood was collected via cardiac puncture and the animals were perfused with cold PBS. Afterwards, several tissues were harvested and snap-frozen for further analysis. Brains were collected and stored for 24 hours at 4% PFA for IHC (further described below).
These seizures were not anticipated, but every case was documented throughout the experiment and scored using the Racine scale^15.

[5] = experiment 1, male HD R6/2 mice, vs vehicle-treated HD mice
[6] = experiment 2 (larger cohort), male HD R6/2 mice, vs vehicle

## CC#C[C@]1(O)CC[C@H]2[C@@H]3CCC4=CC(=O)CCC4=C3[C@@H](c3ccc(N(C)C)cc3)C[C@@]21C [mifepristone, reference compound]
Other steroid receptors
  Cross-reactivity with other steroid receptors (selectivity for GR): is not specific for GR

## O=C(c1ccccn1)[C@]12Cc3cnn(-c4ccc(F)cc4)c3C=C1CCN(S(=O)(=O)c1ccc(C(F)(F)F)cc1)C2 [CORT113176]
Iba1
  Iba1 intensity in hippocampus: tended to be higher
GFAP
  GFAP immunoreactivity in striatum: normalized GFAP levels in male
  GFAP staining intensity in hippocampus: tended to normalize this HD effect
Other steroid receptors
  Cross-reactivity with other steroid receptors (selectivity for GR): lacks significant cross-reactivity with other steroid receptors
R6/2 mouse model [1]
  Gait abnormalities: significantly delayed
R6/2 mouse model [2]; experiment 1, female HD R6/2 mice
  Hindlimb clasping score: at later timepoints the treatment did attenuate the clasping score
R6/2 mouse model [2]; [5]
  Hindlimb clasping score: reduced clasping score
R6/2 mouse model [2]; [6]
  Clasping score: reduced clasping score
R6/2 mouse model [3]; [5]
  Forelimb grip strength over time: attenuated this decrease of muscle function
R6/2 mouse model [3]; [6]
  Grip strength: improved grip strength
mHtt aggregates
  Number of mHtt aggregates in striatum: significantly decreased this number of mHtt aggregates
  Total mHtt aggregate area in CA1 region of hippocampus: smaller total aggregate area
  Total number of mHtt aggregates in CA1 region of hippocampus: significantly fewer aggregates
  mHtt aggregate size in CA1 region of hippocampus: smaller aggregates
  mHtt aggregate size in striatum: of a similar size in vehicle- and CORT113176-treated HD groups
R6/2 mouse model [4]; experiment 1, female HD R6/2 mice, 30 mg/kg s.c. daily for 5 weeks
  Total number of epileptic seizures: none were observed
R6/2 mouse model [4]; experiment 1, male HD R6/2 mice, 30 mg/kg s.c. daily for 5 weeks, vs vehicle-treated HD mice
  Total number of epileptic seizures: occurred slightly more frequently in the vehicle-treated HD mice
R6/2 mouse model [4]; experiment 1, treated HD R6/2 mice, 5-week study
  Time of occurrence of epileptic seizures: occurred mostly near the end of the five weeks (day 32)
R6/2 mouse model [4]; experiment 2 (larger cohort), male HD R6/2 mice, 30 mg/kg s.c. daily for 5 weeks
  Number of epileptic seizures: Only one epileptic seizure was observed

## CC(C)n1ncc(S(=O)(=O)N2CC[C@H]3Cc4c(cnn4-c4ccc(F)cc4)C[C@]3(C(=O)c3cscn3)C2)n1 [zavacorilant, ((4aR,8aS)-1-(4-fluorophenyl)-6-((2-isopropyl-2H-1,2,3-triazol-4-yl)sulfonyl)-4,4a,5,6,7,8,8a,9-octahydro-1H-pyrazolo[3,4-g]isoquinolin-4a-yl)(thiazol-4-yl)methanone]
Other steroid receptors
  Cross-reactivity with other steroid receptors (selectivity for GR): lacks significant cross-reactivity with other steroid receptors
